Where two headings read alike, the source gives them in different places.
Target: Recombinant human cathepsin S (CatS) (Homo sapiens, UniProt P25774)
Experiment: Recombinant human cathepsin S (CatS) inhibition assay, fluorogenic substrate Z-Valine-Valine-Arginine-AMC;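 also: Baculovirus-expressed CatS in pH 5.0 sodium acetate buffer with DTT and NaCl, fluorescence read each minute over 20 min, inhibition derived from rate slope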

Recombinant human cathepsin S (CatS), sequence (P25774 115-331): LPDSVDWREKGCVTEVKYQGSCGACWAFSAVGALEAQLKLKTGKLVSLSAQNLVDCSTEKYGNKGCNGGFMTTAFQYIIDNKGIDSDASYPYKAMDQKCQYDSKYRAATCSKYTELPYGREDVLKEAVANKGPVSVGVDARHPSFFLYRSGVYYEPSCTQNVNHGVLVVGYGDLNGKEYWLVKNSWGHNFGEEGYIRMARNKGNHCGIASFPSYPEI

`NC(=O)N1CCc2c(c(-c3ccc(Cl)c(C#Cc4ccc(CNCc5ccc(Cl)cc5)cc4)c3)nn2CCCN2CCOCC2)C1` [Example 151, 3-(4-Chloro-3-{[4-({[(4-chlorophenyl)methyl]amino}methyl)phenyl]ethynyl}phenyl)-1-(3-morpholin-4-ylpropyl)-1,4,6,7-tetrahydro-5H-pyrazolo[4,3-c]pyridine-5-carboxamide] was tested, and the IC50 was 90 nM.
With `CN(C)C(=O)C(=O)N1CCc2c(c(-c3ccc(Cl)c(C#Cc4ccc(CNCc5ccc(Cl)cc5)cc4)c3)nn2CCCN2CCOCC2)C1` [Example 152, 2-[3-(4-Chloro-3-{[4-({[(4-chlorophenyl)methyl]amino}methyl)phenyl]ethynyl}phenyl)-1-(3-morpholin-4-ylpropyl)-1,4,6,7-tetrahydro-5H-pyrazolo[4,3-c]pyridin-5-yl]-N,N-dimethyl-2-oxoacetamide] the IC50 was 110 nM.
`CN(C)S(=O)(=O)N1CCc2c(c(-c3ccc(Cl)c(C#Cc4ccc(CNCc5ccc(Cl)cc5)cc4)c3)nn2CCCN2CCOCC2)C1` [Example 153, 3-(4-Chloro-3-{[4-({[(4-chlorophenyl)methyl]amino}methyl)phenyl]ethynyl}phenyl)-N,N-dimethyl-1-(3-morpholin-4-ylpropyl)-1,4,6,7-tetrahydro-5H-pyrazolo[4,3-c]pyridine-5-sulfonamide] was tested, and the IC50 was 180 nM.
`NCC(=O)N1CCc2c(c(-c3ccc(Cl)c(C#Cc4ccc(CNCc5ccc(Cl)cc5)cc4)c3)nn2CCCN2CCOCC2)C1` [Example 154, 2-[3-(4-Chloro-3-{[4-({[(4-chlorophenyl)methyl]amino}methyl)phenyl]ethynyl}phenyl)-1-(3-morpholin-4-ylpropyl)-1,4,6,7-tetrahydro-5H-pyrazolo[4,3-c]pyridin-5-yl]-2-oxoethanamine] gave an IC50 of 260 nM.
`CNC(=O)N1CCc2c(c(-c3ccc(Cl)c(C#Cc4ccc(CNCc5ccc(Cl)cc5)cc4)c3)nn2CCCN2CCOCC2)C1` [Example 155, 3-(4-Chloro-3-{[4-({[(4-chlorophenyl)methyl]amino}methyl)phenyl]ethynyl}phenyl)-N-methyl-1-(3-morpholin-4-ylpropyl)-1,4,6,7-tetrahydro-5H-pyrazolo[4,3-c]pyridine-5-carboxamide] was tested, and the IC50 was 790 nM.
Compound `NC(=O)N1CCc2c(c(-c3ccc(Cl)c(C#Cc4ccc(CNCc5ccc(Cl)cc5)cc4)c3)nn2CCCN2CCN(c3ccccn3)CC2)C1` [Example 156, 3-(4-Chloro-3-{[4-({[(4-chlorophenyl)methyl]amino}methyl)phenyl]ethynyl}phenyl)-1-[3-(4-pyridin-2-ylpiperazin-1-yl)propyl]-1,4,6,7-tetrahydro-5H-pyrazolo[4,3-c]pyridine-5-carboxamide] has an IC50 of 50 nM.
With `C[C@H]1COC[C@H](C)N1CCCn1nc(-c2ccc(Cl)c(C#Cc3ccc(CNCc4ccc(Cl)cc4)cc3)c2)c2c1CCN(C(=O)C(N)=O)C2` [Example 157, 2-(3-{4-Chloro-3-[(4-{[(4-chlorobenzyl)amino]methyl}phenyl)ethynyl]phenyl}-1-{3-[(3S,5S)-3,5-dimethylmorpholin-4-yl]propyl}-1,4,6,7-tetrahydro-5H-pyrazolo[4,3-c]pyridin-5-yl)-2-oxoacetamide] the IC50 (CatS IC50) was 40 nM.
Compound `C[C@H]1COCCN1CCCn1nc(-c2ccc(Cl)c(C#Cc3ccc(CNCc4ccc(Cl)cc4)cc3)c2)c2c1CCN(C(=O)C(N)=O)C2` [Example 158, 2-[3-(4-Chloro-3-{[4-({[(4-chlorophenyl)methyl]amino}methyl)phenyl]ethynyl}phenyl)-1-{3-[(3S)-3-methylmorpholin-4-yl]propyl}-1,4,6,7-tetrahydro-5H-pyrazolo[4,3-c]pyridin-5-yl]-2-oxoacetamide] has an IC50 of 50 nM.
`NC(=O)C(=O)N1CCc2c(c(-c3ccc(Cl)c(C#Cc4ccc5c(c4)CN(Cc4ccc(Cl)cc4)CC5)c3)nn2CCCN2CCOCC2)C1` [Example 159, 2-{3-[4-Chloro-3-({2-[(4-chlorophenyl)methyl]-1,2,3,4-tetrahydroisoquinolin-7-yl}ethynyl)phenyl]-1-(3-morpholin-4-ylpropyl)-1,4,6,7-tetrahydro-5H-pyrazolo[4,3-c]pyridin-5-yl}-2-oxoacetamide] was tested, and the IC50 was 60 nM.

Reference: patent US20080200454A1, “CARBON-LINKED TETRAHYDRO-PYRAZOLO-PYRIDINE MODULATORS OF CATHEPSIN S” (priority 2007, published 2008)
